Where two headings read alike, the source gives them in different places.
What was measured:
A. viscosus = experiment: Determination of MIC of individual essential oils (broth microdilution, O.D. at 610 nm); type: cell-based, A. viscosus ATCC 43146; settings: for MIC: Actinomyces viscosus
Experimental: Minimum inhibitory concentration (MIC) is assessed as follows: A 96-well microtiter plate is inoculated with 100 μl of TSB (Tryptic Soy Broth) media in each well. Stock solutions of the active are prepared as required (w/v basis) in percent. The different stock solutions (>1%) are used to achieve the final MIC concentration of the actives. The positive control (Triclosan) is prepared as a 0.1% stock solution. Each active is diluted 1:10 using sterile TSB. 100 μl of the stock solution is added in the first column for the actives and the controls. Transfer 100 μl of the solution from the first column to the next, mix and repeat the transfer to serially dilute 2-fold across the plate. The last 100 μl is discarded. Prepare 0.2-0.3 O.D. activated culture of A. viscosus ATCC 43146 grown in TSB overnight at 37° C. Add 100 μl of the adjusted bacterial culture to each well. Incubate the plates for 24 hours at 37° C. Determine the growth by measuring the O.D. at 610 nm. The data is transferred to an Excel spreadsheet for comparison of the O.D. values. The concentration higher than the lowest concentration with large increment in O.D. is taken as the MIC. Depending on the value obtained the MIC is repeated using higher or lower concentrations of the stock solution. This gives the closest value of the concentration determined by serial dilution at which the microorganism is inhibited (MIC).

[1] = cited from earlier work
[2] = individual essential oils against A. viscosus, 24 hours at 37° C, read-out: MIC value (ppm)
[3] = Table 3, essential oil alone, read-out: Individual MIC (concentration of each essential oil alone necessary to produce the same effect)
[4] = individual essential oils against A. viscosus, 24 hours at 37° C

Compound	MIC (A. viscosus; [2]) [µg/mL]	MIC value (ppm) (A. viscosus; [4])	other results
OCc1ccccc1 [Benzyl alcohol]	700	–	–
Cc1ccc(C(C)C)cc1O [Carvacrol, carvacrol]	–	–	MIC (A. viscosus; 24 h, read-out: MIC value (ppm)): 80 µg/mL; MIC (A. viscosus; read-out: Individual MIC (concentration of each essential oil alone necessary to produce the same effect)): 80 µg/mL; Individual MIC (concentration of each essential oil alone necessary to produce the same effect) (A. viscosus; Table 3, essential oil alone): 80 ppm
CC(C)=CCCC(C)=CC=O [Citral]	250	–	MIC (A. viscosus; [3]): 250 µg/mL
CCCc1ccc(O)c(OC)c1 [Dihydro-eugenol]	–	500	–
CC12CCC(CC1)C(C)(C)O2 [Eucalyptol]	250	–	–
C=CCc1ccc(O)c(OC)c1 [Eugenol]	2000	–	–
Cc1cc(O)ccc1C(C)C [IPMP (99.8% pure)]	–	160	–
COC(=O)c1ccccc1O [Methyl salicylate]	1000	–	–
Cc1ccc(C(C)C)c(O)c1 [Thymol (98% pure), Thymol]	900	–	MIC (A. viscosus; [3]): 900 µg/mL
O=C([O-])CC(O)(CC(=O)[O-])C(=O)[O-].O=C([O-])CC(O)(CC(=O)[O-])C(=O)[O-].[Zn+2].[Zn+2].[Zn+2] [Zinc citrate]	–	160	–
[O]=[Zn] [Zinc oxide]	–	625	–
CC(C)=CCC[C@](C)(O)[C@@H]1CC=C(C)CC1 [bisabolol, α-(−)-bisabolol]	–	–	Solubility in ethanol ([1]; ethanol): soluble; Solubility in water and glycerin ([1]; water and glycerin): almost insoluble
Catechins hydrate	–	100	–
α-(±)-bisabolol [Syn. Bisabolol]	–	125	Individual MIC (concentration of each essential oil alone necessary to produce the same effect) (A. viscosus; Table 3, essential oil alone): 125 ppm
